Test results: PubChem BioAssay (NCI)
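Method: 48-hour compound exposure of cells in 96-well plates, five concentrations, linear interpolation of endpoints. At the GI50, growth is halved. The concentration for full growth arrest is given as TGI.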

Tests used:
Assay in all cases: NCI tumour cell line growth inhibition, 48 h
PC-3 prostate = system: PC-3 prostate
KM12 colon = system: KM12 colon
HS 578T breast = system: HS 578T breast
SF-268 CNS = system: SF-268 CNS
RPMI-8226 leukemia = system: RPMI-8226 leukemia
OVCAR-3 ovarian = system: OVCAR-3 ovarian
SK-MEL-28 melanoma = system: SK-MEL-28 melanoma
M14 melanoma = system: M14 melanoma
MDA-MB-435 = system: MDA-MB-435
DU-145 prostate = system: DU-145 prostate
U251 CNS = system: U251 CNS
A549 NSCLC = system: A549 NSCLC
NCI/ADR-RES ovarian = system: NCI/ADR-RES ovarian
BT-549 breast = system: BT-549 breast
LOX IMVI melanoma = system: LOX IMVI melanoma
HT29 colon = system: HT29 colon
SN12C renal = system: SN12C renal
MCF7 breast = system: MCF7 breast
SK-MEL-5 melanoma = system: SK-MEL-5 melanoma
OVCAR-5 ovarian = system: OVCAR-5 ovarian
MALME-3M melanoma = system: MALME-3M melanoma
SR leukemia = system: SR leukemia
IGROV1 ovarian = system: IGROV1 ovarian
SNB-19 CNS = system: SNB-19 CNS
K-562 leukemia = system: K-562 leukemia
SF-539 CNS = system: SF-539 CNS
NCI-H460 lung = system: NCI-H460 lung
EKVX NSCLC = system: EKVX NSCLC
RXF 393 renal = system: RXF 393 renal
NCI-H522 lung = system: NCI-H522 lung
CAKI-1 renal = system: CAKI-1 renal
786-0 renal = system: 786-0 renal
COLO 205 colon = system: COLO 205 colon
UACC-62 melanoma = system: UACC-62 melanoma
UO-31 renal = system: UO-31 renal
SK-MEL-2 melanoma = system: SK-MEL-2 melanoma
SW-620 colon = system: SW-620 colon
T-47D breast = system: T-47D breast
CCRF-CEM leukemia = system: CCRF-CEM leukemia
OVCAR-8 ovarian = system: OVCAR-8 ovarian
HCT-15 colon = system: HCT-15 colon
MDA-MB-231 breast = system: MDA-MB-231 breast
HCT-116 colon = system: HCT-116 colon
A498 renal = system: A498 renal
MOLT-4 leukemia = system: MOLT-4 leukemia
SNB-75 CNS = system: SNB-75 CNS
NCI-H226 lung = system: NCI-H226 lung
SF-295 CNS = system: SF-295 CNS
HOP-62 NSCLC = system: HOP-62 NSCLC
HCC-2998 colon = system: HCC-2998 colon
ACHN renal = system: ACHN renal
NCI-H23 lung = system: NCI-H23 lung

**Q.** What does the source list for Fc1cc2[nH]ncc2c2c3c(c(-c4cn[nH]c4C(F)(F)F)nc12)CCCC3?
**A.** GI50 (PC-3 prostate): 1860 nM; TGI (PC-3 prostate): > 100000 nM; GI50 (KM12 colon): 2130 nM; TGI (KM12 colon): 15300 nM; GI50 (HS 578T breast): 1660 nM; TGI (HS 578T breast): 5260 nM; GI50 (SF-268 CNS): 1970 nM; TGI (SF-268 CNS): 5860 nM; GI50 (RPMI-8226 leukemia): 1560 nM; TGI (RPMI-8226 leukemia): > 100000 nM; GI50 (OVCAR-3 ovarian): 2750 nM; TGI (OVCAR-3 ovarian): > 100000 nM; GI50 (SK-MEL-28 melanoma): 1410 nM; TGI (SK-MEL-28 melanoma): 5350 nM; GI50 (M14 melanoma): 1310 nM; TGI (M14 melanoma): 4120 nM; GI50 (MDA-MB-435): 2390 nM; TGI (MDA-MB-435): 12100 nM; GI50 (DU-145 prostate): 1720 nM; TGI (DU-145 prostate): > 100000 nM; GI50 (U251 CNS): 2570 nM; TGI (U251 CNS): > 100000 nM; GI50 (A549 NSCLC): 2060 nM; TGI (A549 NSCLC): > 100000 nM; GI50 (NCI/ADR-RES ovarian): 4950 nM; TGI (NCI/ADR-RES ovarian): 43400 nM; GI50 (BT-549 breast): 1380 nM; TGI (BT-549 breast): 2960 nM; GI50 (LOX IMVI melanoma): 1100 nM; TGI (LOX IMVI melanoma): 3050 nM; GI50 (HT29 colon): 2950 nM; TGI (HT29 colon): > 100000 nM; GI50 (SN12C renal): 1700 nM; TGI (SN12C renal): 8630 nM; GI50 (MCF7 breast): 1180 nM; TGI (MCF7 breast): > 100000 nM; GI50 (SK-MEL-5 melanoma): 1230 nM; TGI (SK-MEL-5 melanoma): 2950 nM; GI50 (OVCAR-5 ovarian): 2490 nM; TGI (OVCAR-5 ovarian): 7430 nM; GI50 (MALME-3M melanoma): 1910 nM; TGI (MALME-3M melanoma): 5410 nM; GI50 (SR leukemia): 716 nM; TGI (SR leukemia): 5870 nM; GI50 (IGROV1 ovarian): 802 nM; TGI (IGROV1 ovarian): 5880 nM; GI50 (SNB-19 CNS): 2290 nM; TGI (SNB-19 CNS): 9370 nM; GI50 (K-562 leukemia): 2070 nM; TGI (K-562 leukemia): > 100000 nM; GI50 (SF-539 CNS): 1290 nM; TGI (SF-539 CNS): 3060 nM; GI50 (NCI-H460 lung): 1160 nM; TGI (NCI-H460 lung): 9920 nM; GI50 (EKVX NSCLC): 1840 nM; TGI (EKVX NSCLC): 5300 nM; GI50 (RXF 393 renal): 1080 nM; TGI (RXF 393 renal): 2390 nM; GI50 (NCI-H522 lung): 1620 nM; TGI (NCI-H522 lung): 9400 nM; GI50 (CAKI-1 renal): 1810 nM; TGI (CAKI-1 renal): 7540 nM; GI50 (786-0 renal): 2000 nM; TGI (786-0 renal): 7160 nM; GI50 (COLO 205 colon): 1550 nM; TGI (COLO 205 colon): 4320 nM; GI50 (UACC-62 melanoma): 1310 nM; TGI (UACC-62 melanoma): 3000 nM; GI50 (UO-31 renal): 1560 nM; TGI (UO-31 renal): 6020 nM; GI50 (SK-MEL-2 melanoma): 2070 nM; TGI (SK-MEL-2 melanoma): 5670 nM; GI50 (SW-620 colon): 1360 nM; TGI (SW-620 colon): > 100000 nM; GI50 (T-47D breast): 1970 nM; TGI (T-47D breast): 7390 nM; GI50 (CCRF-CEM leukemia): 1890 nM; TGI (CCRF-CEM leukemia): > 100000 nM; GI50 (OVCAR-8 ovarian): 2040 nM; TGI (OVCAR-8 ovarian): > 100000 nM; GI50 (HCT-15 colon): 2790 nM; TGI (HCT-15 colon): 15200 nM; GI50 (MDA-MB-231 breast): 1830 nM; TGI (MDA-MB-231 breast): 7230 nM; GI50 (HCT-116 colon): 923 nM; TGI (HCT-116 colon): > 100000 nM; GI50 (A498 renal): 1560 nM; TGI (A498 renal): 3090 nM; GI50 (MOLT-4 leukemia): 802 nM; TGI (MOLT-4 leukemia): 3750 nM; GI50 (SNB-75 CNS): 1500 nM; TGI (SNB-75 CNS): 2950 nM; GI50 (NCI-H226 lung): 2640 nM; TGI (NCI-H226 lung): > 100000 nM; GI50 (SF-295 CNS): 2150 nM; TGI (SF-295 CNS): 10300 nM; GI50 (HOP-62 NSCLC): 1650 nM; TGI (HOP-62 NSCLC): 6190 nM; GI50 (HCC-2998 colon): 1640 nM; TGI (HCC-2998 colon): 4990 nM; GI50 (ACHN renal): 947 nM; TGI (ACHN renal): 7580 nM; GI50 (NCI-H23 lung): 1490 nM; TGI (NCI-H23 lung): 6490 nM
